Each structure is given as a SMILES string. Values after ≈ are worked out from the molar mass of the structure shown. Active and inactive are the calls of the source. The calls are words filed in the database; no cut-off is given here.

The test system of assay [1] is Mycolicibacterium smegmatis. The assay is described as follows: Antibacterial activity against Mycolicibacterium smegmatis assessed as bacterial growth inhibition at 20 nmol by paper disc diffusion assay. Type of assay: functional, organism-based. (In general: Agar diffusion results depend on both activity and mobility in agar.)
Assay [2] relates to Micrococcus luteus. Nature of the assay: Antibacterial activity against Micrococcus luteus assessed as bacterial growth inhibition at 20 nmol by paper disc diffusion assay. Format: functional, organism-based.
The subject of assay [3] is Staphylococcus aureus. The assay is described as follows: Antibacterial activity against Staphylococcus aureus assessed as bacterial growth inhibition at 20 nmol by paper disc diffusion assay. Type of assay: functional, organism-based.
Assay [4] deals with Escherichia coli. Nature of the assay: Antibacterial activity against Escherichia coli assessed as bacterial growth inhibition at 20 nmol by paper disc diffusion assay. Type of assay: functional, organism-based.
Assay [5] relates to Escherichia coli. The assay is described as follows: Antibacterial activity against Escherichia coli RFM795 harboring lptD gene mutation assessed as bacterial growth inhibition at 20 nmol by paper disc diffusion assay. Type of assay: functional, organism-based.
In assay [6] the test system is Streptomyces sp. Nature of the assay: Antibacterial activity against Streptomyces sp. assessed as bacterial growth inhibition at 20 nmol by paper disc diffusion assay. Format: functional, organism-based.
The next assay deals with Streptomyces lydicus. Nature of the assay: Antibacterial activity against Streptomyces lydicus assessed as bacterial growth inhibition at 20 nmol by paper disc diffusion assay. Format: functional, organism-based.
The test system of the next assay is Streptomyces nigrescens. Nature of the assay: Antibacterial activity against Streptomyces nigrescens HEK616 assessed as bacterial growth inhibition at 20 nmol by paper disc diffusion assay. Type of assay: functional, organism-based.
Assay [7] concerns Mycolicibacterium smegmatis. Nature of the assay: Antibacterial activity against Mycolicibacterium smegmatis assessed as bacterial growth inhibition by paper disc diffusion assay. Format: functional.
The test system of assay [8] is Micrococcus luteus. Nature of the assay: Antibacterial activity against Micrococcus luteus assessed as bacterial growth inhibition by paper disc diffusion assay. Format: functional.
The test system of assay [9] is Staphylococcus aureus. Nature of the assay: Antibacterial activity against Staphylococcus aureus assessed as bacterial growth inhibition by paper disc diffusion assay. Format: functional.
The subject of assay [10] is Mycobacterium tuberculosis. The assay is described as follows: Antibacterial activity against Mycobacterium tuberculosis H37Rv assessed as bacterial growth inhibition. Format: functional.
Assay [11] deals with Streptomyces sp. Nature of the assay: Antibacterial activity against Streptomyces sp. TP-A0584 assessed as bacterial growth inhibition at 20 nmol by paper disc diffusion assay. Type of assay: functional, organism-based.
The test system of another assay is Candida albicans. Nature of the assay: Antifungal activity against Candida albicans assessed as fungal growth inhibition at 20 nmol by paper disc diffusion assay. Type of assay: functional, organism-based.
The next assay concerns Saccharomyces cerevisiae. Nature of the assay: Antifungal activity against Saccharomyces cerevisiae assessed as fungal growth inhibition at 20 nmol by paper disc diffusion assay. Format: functional, organism-based.

Usually MIC stands for the least concentration at which growth counts as inhibited. With `C/C=C1/NC(=O)C(NC(=O)CNC(=O)CCCCCCCCCCCCNC(=N)N)CC2(CSCC(C(=O)O)NC(=O)CNC(=O)CNC2=O)NC(=O)[C@H]([C@@H](C)CC)NC1=O` (stereo not given in full), the result (in [1]; with Micrococcus luteus [2]; in the assay on Staphylococcus aureus [3]; in the assay with Escherichia coli [4]; in the assay on Streptomyces sp. [6]) was Active. The result with Escherichia coli [5], with Streptomyces lydicus and with Streptomyces nigrescens was inactive. Further, the MIC was 25.6 µM (≈ 22.5 µg/mL) in assay [7], 51.2 µM (≈ 45.1 µg/mL) in the assay on Micrococcus luteus [8] and 51.2 µM (≈ 45.1 µg/mL) in the assay on Staphylococcus aureus [9].
Consider `NC[C@H]1O[C@H](O[C@H]2[C@H](O)[C@@H](O[C@H]3O[C@H](CO)[C@@H](O)[C@H](N)[C@H]3O)[C@H](N)C[C@@H]2N)[C@H](O)[C@@H](O)[C@@H]1O` [KANAMYCIN], for which the results for the MIC (in assay [7]; with Micrococcus luteus [8]; with Staphylococcus aureus [9]) were 1.6 µM (≈ 0.775 µg/mL), 12.8 µM (≈ 6.2 µg/mL) and 0.2 µM (≈ 0.0969 µg/mL), respectively.
Consider `C/C=C1/NC(=O)C(NC(=O)CNC(=O)CCCCCCCCCCCCNC(=N)N)CC2(C[S+]([O-])CC(C(=O)O)NC(=O)CNC(=O)CNC2=O)NC(=O)[C@H]([C@@H](C)CC)NC1=O` (stereo not given in full), for which the MIC in [10] worked out at 0.35 µM (≈ 0.314 µg/mL); in assay [7], 6.4 µM (≈ 5.73 µg/mL); with Micrococcus luteus [8], 12.8 µM (≈ 11.5 µg/mL); in the assay with Staphylococcus aureus [9], 12.8 µM (≈ 11.5 µg/mL). Moreover, the result (in assay [1]; in the assay with Micrococcus luteus [2]; in the assay with Staphylococcus aureus [3]; with Escherichia coli [4]; with Streptomyces sp. [6]; in the assay on Streptomyces sp. [11]) was Active. Moreover, the outcome with Escherichia coli [5], in the assay with Streptomyces lydicus, in the assay on Streptomyces nigrescens, in the assay with Candida albicans and with Saccharomyces cerevisiae was inactive.
Turning to `C/C=C1/NC(=O)C(NC(=O)CNC(=O)CCCCCCCCCCCCNC(=N)N)CC2(CSCC(C(=O)O)NC(=O)CNC(=O)CNC2=O)NC(=O)[C@H](C(C)C)NC1=O` (stereo not given in full), the outcome (in [1]; with Micrococcus luteus [2]; in the assay with Staphylococcus aureus [3]; in the assay on Escherichia coli [4]; in the assay with Streptomyces sp. [6]) was Active. Also, the result in the assay on Escherichia coli [5], in the assay on Streptomyces lydicus and with Streptomyces nigrescens was inactive. The MIC in assay [7] was 51.2 µM (≈ 44.3 µg/mL); in the assay with Micrococcus luteus [8] it was 102 µM (≈ 88.7 µg/mL); in the assay with Staphylococcus aureus [9] it was 102 µM (≈ 88.7 µg/mL).
On to `C/C=C1/NC(=O)C(NC(=O)CNC(=O)CCCCCCCCCCCCNC(=N)N)CC2(C[S+]([O-])CC(C(=O)O)NC(=O)CNC(=O)CNC2=O)NC(=O)[C@H](C(C)C)NC1=O` (stereo not given in full), for which the minimal inhibitory concentration (MIC) in [10] was 0.35 µM (≈ 0.309 µg/mL); in assay [7], 25.6 µM (≈ 22.6 µg/mL); in the assay on Micrococcus luteus [8], 25.6 µM (≈ 22.6 µg/mL); with Staphylococcus aureus [9], 51.2 µM (≈ 45.2 µg/mL). Also, the outcome (in assay [1]; with Micrococcus luteus [2]; in the assay on Staphylococcus aureus [3]; in the assay on Escherichia coli [4]; with Streptomyces sp. [6]; in the assay with Streptomyces sp. [11]) was Active. The outcome in the assay with Escherichia coli [5], in the assay with Streptomyces lydicus, in the assay with Streptomyces nigrescens, in the assay with Candida albicans and in the assay on Saccharomyces cerevisiae was inactive.

(Values after ChEMBL document CHEMBL5257127, “SolS-catalyzed sulfoxidation of labionin to solabionin drives antibacterial activity of solabiomycins” (2023).)
